US8071768B2, “Alkylquinoline and alkylquinazoline kinase modulators” (Janssen Pharmaceutica, N.V., priority 2005, dated 2011)

Biological target: T1, TrkB (Homo sapiens, UniProt Q16620)
T1 construct: purchased Upstate 14-507M
Test: Trk B Fluorescence Polarization Kinase Assay
Format: biochemical
Details: uncertainty ±10%
Experimental: Trk B Fluorescence Polarization Kinase Assay (TrkB IC50 Data)
The compounds of the present invention are also specific inhibitors of TrkB. Selection of preferred compounds of Formula I for use as TrkB inhibitors was performed in the following manner. The TrkB assay utilized the fluorescein-labeled phosphopeptide and the anti-phosphotyrosine antibody included in the Panvera Phospho-Tyrosine Kinase Kit (Green) supplied by Invitrogen. When TrkB phosphorylated poly Glu4Tyr, the fluorescein-labeled phosphopeptide was displaced from the anti-phosphotyrosine antibody by the phosphorylated poly Glu4Tyr, thus decreasing the FP value. The TrkB kinase reaction was incubated at room temperature for 30 minutes under the following conditions: 50 nM TrkB (Upstate, catalog # 14-507M), 20 ug/mL poly Glu4Tyr, 150 uM ATP, 5 mM MgCl2, 1% compound in DMSO. The kinase reaction was stopped with the addition of EDTA. The fluorescein-labeled phosphopeptide and the anti-phosphotyrosine antibody were added and incubated for 30 minutes at room temperature. Data points were an average of triplicate samples. Inhibition and IC50 data analysis were done with GraphPad Prism using a non-linear regression fit with a multiparamater, sigmoidal dose-response (variable slope) equation.

T1 sequence (Q16620 32-822): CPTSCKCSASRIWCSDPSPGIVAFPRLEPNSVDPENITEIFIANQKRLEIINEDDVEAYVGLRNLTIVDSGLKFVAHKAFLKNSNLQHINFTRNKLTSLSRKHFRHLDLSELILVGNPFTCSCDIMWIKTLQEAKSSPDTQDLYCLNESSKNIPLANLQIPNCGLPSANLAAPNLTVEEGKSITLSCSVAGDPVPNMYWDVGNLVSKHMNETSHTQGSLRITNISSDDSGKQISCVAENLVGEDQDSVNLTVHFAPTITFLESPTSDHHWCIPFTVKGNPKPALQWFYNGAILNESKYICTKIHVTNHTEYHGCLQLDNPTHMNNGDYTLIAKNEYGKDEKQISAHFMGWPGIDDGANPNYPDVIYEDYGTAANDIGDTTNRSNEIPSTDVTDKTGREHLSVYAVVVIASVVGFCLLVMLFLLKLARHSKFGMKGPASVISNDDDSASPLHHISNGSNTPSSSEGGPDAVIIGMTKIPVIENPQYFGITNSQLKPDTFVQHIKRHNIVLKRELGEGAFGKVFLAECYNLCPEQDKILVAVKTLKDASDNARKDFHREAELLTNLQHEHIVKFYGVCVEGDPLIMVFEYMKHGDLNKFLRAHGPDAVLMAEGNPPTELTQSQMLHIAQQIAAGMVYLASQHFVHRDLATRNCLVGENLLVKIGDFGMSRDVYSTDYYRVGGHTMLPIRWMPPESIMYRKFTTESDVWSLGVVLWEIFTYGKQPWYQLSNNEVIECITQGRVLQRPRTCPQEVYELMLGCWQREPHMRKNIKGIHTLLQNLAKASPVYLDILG

Work on `O=C(Nc1ccc(N2CCOCC2)cc1)N1CCC(c2ncnc3cc(N4CCOCC4)ccc23)CC1` [Compound 145, 4-(7-Morpholin-4-yl-quinazolin-4-yl)-piperidine-1-carboxylic acid (4-morpholin-4-yl-phenyl)-amide] yielded an IC50 of 21.1 µM.
`CN1CCN(CCCOc2ccc3c(C4CCN(C(=O)Nc5ccc(N6CCCC6)cc5)CC4)ncnc3c2)CC1` [Compound 158, 4-{7-[3-(4-Methyl-piperazin-1-yl)-propoxy]-quinazolin-4-yl}-piperidine-1-carboxylic acid (4-pyrrolidin-1-yl-phenyl)-amide] gave an IC50 of 5 µM.
`CN1CCCN(c2ccc3c(C4CCN(C(=O)Nc5ccc(N6CCOCC6)cc5)CC4)ncnc3c2)CC1` [Compound 138, 4-[7-(4-Methyl-[1,4]diazepan-1-yl)-quinazolin-4-yl]-piperidine-1-carboxylic acid (4-morpholin-4-yl-phenyl)-amide] was tested, and the IC50 was > 42 µM.
Work on `CC(C)c1ccc(NC(=O)CN2CCC(c3ncnc4ccccc34)CC2)cc1` [Compound 16, N-(4-Isopropyl-phenyl)-2-(4-quinazolin-4-yl-piperidin-1-yl)-acetamide] yielded an IC50 of 2.6 µM.
For `CC(C)Oc1ccc(NC(=O)N2CCC(c3ncnc4cc(OCCCN5CCCC5=O)ccc34)CC2)cc1` [Compound 67, 4-{7-[3-(2-Oxo-pyrrolidin-1-yl)-propoxy]-quinazolin-4-yl}-piperidine-1-carboxylic acid (4-isopropoxy-phenyl)-amide], the IC50 was 0.6 µM.
Molecule `COc1cc2ncnc(C3CCN(C(=O)Nc4ccc5[nH]ccc5c4)CC3)c2cc1OC` [Compound 23, 4-(6,7-Dimethoxy-quinazolin-4-yl)-piperidine-1-carboxylic acid (1H-indol-5-yl)-amide] has an IC50 of 13.3 µM.
Work on `CN1CCC(Oc2ccc3c(C4CCN(C(=O)Nc5ccc(N6CCOCC6)cc5)CC4)ncnc3c2)CC1` [Compound 127, 4-[7-(1-Methyl-piperidin-4-yloxy)-quinazolin-4-yl]-piperidine-1-carboxylic acid (4-morpholin-4-yl-phenyl)-amide] yielded an IC50 of 13.6 µM.
Work on `CN1CCN(c2ccc3c(C4CCN(C(=O)Nc5ccc(N6CCCC6)nc5)CC4)ncnc3c2)CC1` [Compound 160, 4-[7-(4-Methyl-piperazin-1-yl)-quinazolin-4-yl]-piperidine-1-carboxylic acid (6-pyrrolidin-1-yl-pyridin-3-yl)-amide] yielded an IC50 of 6.45 µM.
In the case of `COc1cc2ncnc(C3CCN(C(=O)Nc4ccc(C)cc4)CC3)c2cc1OC` [Compound 48, 4-(6,7-Dimethoxy-quinazolin-4-yl)-piperidine-1-carboxylic acid p-tolylamide], the IC50 is reported as 6.6 µM.
Molecule `O=C(Nc1ccc(N2CCOCC2)cc1)N1CCC(c2ncnc3cc(OCCN4CCOC4=O)ccc23)CC1` [Compound 148, 4-{7-[2-(2-Oxo-oxazolidin-3-yl)-ethoxy]-quinazolin-4-yl}-piperidine-1-carboxylic acid (4-morpholin-4-yl-phenyl)-amide] has an IC50 of 26.7 µM.
With `CN1CCN(c2ccc3c(C4CCN(C(=O)Nc5ccc(N6CCCC6)cc5)CC4)ncnc3c2)CC1` [Compound 159, 4-[7-(4-Methyl-piperazin-1-yl)-quinazolin-4-yl]-piperidine-1-carboxylic acid (4-pyrrolidin-1-yl-phenyl)-amide] the IC50 was 7.86 µM.
With `CS(=O)(=O)N1CCN(c2ccc3c(C4CCN(C(=O)Nc5ccc(N6CCOCC6)cc5)CC4)ncnc3c2)CC1` [Compound 142, 4-[7-(4-Methanesulfonyl-piperazin-1-yl)-quinazolin-4-yl]-piperidine-1-carboxylic acid (4-morpholin-4-yl-phenyl)-amide] the IC50 was 17.4 µM.
In the case of `CC(C)Oc1ccc(NC(=O)N2CCC(c3ncnc4ccc(C#CCN5CCCCC5)cc34)CC2)cc1` [Compound 14, 4-[6-(3-Piperidin-1-yl-prop-1-ynyl)-quinazolin-4-yl]-piperidine-1-carboxylic acid (4-isopropoxy-phenyl)-amide], the IC50 is reported as 0.3 µM.
For `COCCCOc1ccc2c(C3CCN(C(=O)Nc4ccc(N5CCOCC5)cc4)CC3)ncnc2c1` [Compound 78, 4-[7-(3-Methoxy-propoxy)-quinazolin-4-yl]-piperidine-1-carboxylic acid (4-morpholin-4-yl-phenyl)-amide], the IC50 was 18.4 µM.
`CS(=O)(=O)N1CCN(CCCOc2ccc3c(C4CCN(C(=O)Nc5ccc(N6CCOCC6)cc5)CC4)ncnc3c2)CC1` [Compound 118, 4-{7-[3-(4-Methanesulfonyl-piperazin-1-yl)-propoxy]-quinazolin-4-yl}-piperidine-1-carboxylic acid (4-morpholin-4-yl-phenyl)-amide] gave an IC50 of 14.6 µM.
Work on `COc1cc2ncnc(C3CCN(C(=O)Nc4ccc(C(C)(C)C)cc4)CC3)c2cc1OC` [Compound 53, 4-(6,7-Dimethoxy-quinazolin-4-yl)-piperidine-1-carboxylic acid (4-tert-butyl-phenyl)-amide] yielded an IC50 of 1.1 µM.
Work on `COc1cc2ncnc(C3CCN(C(=O)Nc4ccc(N5CCCCC5)cc4)CC3)c2cc1OC` [Compound 19, 4-(6,7-Dimethoxy-quinazolin-4-yl)-piperidine-1-carboxylic acid (4-piperidin-1-yl-phenyl)-amide] yielded an IC50 of 2.7 µM.
For `CN(C)[C@@H]1CCN(c2ccc3c(C4CCN(C(=O)Nc5ccc(N6CCOCC6)cc5)CC4)ncnc3c2)C1` [Compound 150, (R)-4-[7-(3-Dimethylamino-pyrrolidin-1-yl)-quinazolin-4-yl]-piperidine-1-carboxylic acid (4-morpholin-4-yl-phenyl)-amide], the IC50 was > 42 µM.
`COc1cc2ncnc(C3CCN(CC(=O)Nc4ccc(OC(C)C)cc4)CC3)c2cc1OC` [Compound 10, 2-[4-(6,7-Dimethoxy-quinazolin-4-yl)-piperidin-1-yl]-N-(4-isopropoxy-phenyl)-acetamide] was tested, and the IC50 was 1 µM.
`COc1cc2ncnc(C3CCN(C(=O)Nc4ccc(C5CCCCC5)cc4)CC3)c2cc1OC` [Compound 21, 4-(6,7-Dimethoxy-quinazolin-4-yl)-piperidine-1-carboxylic acid (4-cyclohexyl-phenyl)-amide] gave an IC50 of 0.6 µM.
`O=C(Nc1ccc(N2CCCC2)nc1)N1CCC(c2ncnc3cc(OCCN4CCOC4=O)ccc23)CC1` [Compound 92, 4-{7-[2-(2-Oxo-oxazolidin-3-yl)-ethoxy]-quinazolin-4-yl}-piperidine-1-carboxylic acid (6-pyrrolidin-1-yl-pyridin-3-yl)-amide] gave an IC50 of 1.3 µM.
`COc1cc2ncnc(C3CCN(C(=O)Nc4ccc(OC5CCCC5)nc4)CC3)c2cc1OC` [Compound 69, 4-(6,7-Dimethoxy-quinazolin-4-yl)-piperidine-1-carboxylic acid (6-cyclopentyloxy-pyridin-3-yl)-amide] showed an IC50 of 0.15 µM.
`CC(C)Oc1ccc(NC(=O)N2CCC(c3ncnc4cc(OCCCNS(C)(=O)=O)ccc34)CC2)cc1` [Compound 65, 4-[7-(3-Methanesulfonylamino-propoxy)-quinazolin-4-yl]-piperidine-1-carboxylic acid (4-isopropoxy-phenyl)-amide] gave an IC50 of 0.5 µM.
Molecule `CC(C)Oc1ccc(NC(=O)N2CCC(c3ncnc4cc(OCCCN5CCCCC5)ccc34)CC2)cc1` [Compound 33, 4-(7-(3-Piperidin-1-yl-propoxy)-quinazolin-4-yl)-piperidine-1-carboxylic acid (4-isopropoxy-phenyl)-amide] has an IC50 of 0.9 µM.
With `COc1cc2ncnc(C3CCN(CC(=O)Nc4ccc(C(C)C)cc4)CC3)c2cc1OC` [Compound 9, 2-[4-(6,7-Dimethoxy-quinazolin-4-yl)-piperidin-1-yl]-N-(4-isopropyl-phenyl)-acetamide] the IC50 was 0.5 µM.
With `COc1cc2ncnc(C3CCN(C(=O)Nc4ccc(C5=CCN(C(=O)OC(C)(C)C)CC5)cc4)CC3)c2cc1OC` [Compound 61, 4-(4-{[4-(6,7-Dimethoxy-quinazolin-4-yl)-piperidine-1-carbonyl]-amino}-phenyl)-3,6-dihydro-2H-pyridine-1-carboxylic acid tert-butyl ester] the IC50 was 40.6 µM.
`O=C(Nc1ccc(N2CCOCC2)cc1)N1CCC(c2ncnc3cc(N4CCC[C@H]4CO)ccc23)CC1` [Compound 139, (S)-4-[7-(2-Hydroxymethyl-pyrrolidin-1-yl)-quinazolin-4-yl]-piperidine-1-carboxylic acid (4-morpholin-4-yl-phenyl)-amide] was tested, and the IC50 was 33.8 µM.
`CC(C)Oc1ccc(NC(=O)N2CCC(c3ncnc4ccc(I)cc34)CC2)cc1` [Compound 11, 4-(6-Iodo-quinazolin-4-yl)-piperidine-1-carboxylic acid (4-isopropoxy-phenyl)-amide] gave an IC50 of 0.2 µM.
For `CC(=O)N1CCN(CCOc2ccc3c(C4CCN(C(=O)Nc5ccc(N6CCOCC6)cc5)CC4)ncnc3c2)CC1` [Compound 97, 4-{7-[2-(4-Acetyl-piperazin-1-yl)-ethoxy]-quinazolin-4-yl}-piperidine-1-carboxylic acid (4-morpholin-4-yl-phenyl)-amide], the IC50 was > 20 µM.
`CCOc1ccc(NC(=O)N2CCC(c3ncnc4cc(OC)c(OC)cc34)CC2)cc1` [Compound 44, 4-(6,7-Dimethoxy-quinazolin-4-yl)-piperidine-1-carboxylic acid (4-ethoxy-phenyl)-amide] gave an IC50 of 2.2 µM.
Work on `CC(C)c1ccc(NC(=O)N2CCC(c3ncnc4cc(Cl)ccc34)CC2)cc1` [Compound 30, 4-(7-Chloro-quinazolin-4-yl)-piperidine-1-carboxylic acid (4-isopropyl-phenyl)-amide] yielded an IC50 of 0.7 µM.
For `CN1CCCN(CCCOc2ccc3c(C4CCN(C(=O)Nc5ccc(N6CCOCC6)cc5)CC4)ncnc3c2)CC1` [Compound 125, 4-{7-[3-(4-Methyl-[1,4]diazepan-1-yl)-propoxy]-quinazolin-4-yl}-piperidine-1-carboxylic acid (4-morpholin-4-yl-phenyl)-amide], the IC50 was > 20 µM.
